According to article PMC8524670 (Pharmacology Research & Perspectives, 2021):

Experiments:
CYP2C9 [1] = experiment: CYP induction in human hepatocytes; assay type: in vitro ADME
OAT3 = molecular target: T1, OAT3 (Homo sapiens, UniProt Q8TCC7); experiment: SLC transportation assay in HEK293 cells; assay type: in vitro ADME; conditions: uptake ratios <2 at 0.1, 0.3, 5 µM
T1 sequence (Q8TCC7 1-542): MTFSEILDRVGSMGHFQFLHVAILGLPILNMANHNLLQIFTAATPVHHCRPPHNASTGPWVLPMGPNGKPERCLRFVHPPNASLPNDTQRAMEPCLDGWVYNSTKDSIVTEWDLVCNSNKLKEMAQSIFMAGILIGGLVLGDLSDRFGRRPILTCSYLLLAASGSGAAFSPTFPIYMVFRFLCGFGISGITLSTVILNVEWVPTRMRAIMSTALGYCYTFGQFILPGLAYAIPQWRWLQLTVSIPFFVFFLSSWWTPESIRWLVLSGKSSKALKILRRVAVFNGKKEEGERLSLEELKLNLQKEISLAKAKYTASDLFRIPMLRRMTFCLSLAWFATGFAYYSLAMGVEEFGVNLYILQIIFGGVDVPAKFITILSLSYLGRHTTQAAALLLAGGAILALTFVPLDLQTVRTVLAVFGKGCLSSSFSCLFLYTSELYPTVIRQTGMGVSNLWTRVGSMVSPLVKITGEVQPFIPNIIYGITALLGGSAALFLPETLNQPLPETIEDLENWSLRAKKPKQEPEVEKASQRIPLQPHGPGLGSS

OCT2 [2] = molecular target: T2, OCT2 (Homo sapiens, UniProt O15244); experiment: SLC transportation assay in HEK293 cells; assay type: in vitro ADME; conditions: uptake ratios <2 at 0.1, 0.3, 5 µM
T2 sequence (O15244 1-555): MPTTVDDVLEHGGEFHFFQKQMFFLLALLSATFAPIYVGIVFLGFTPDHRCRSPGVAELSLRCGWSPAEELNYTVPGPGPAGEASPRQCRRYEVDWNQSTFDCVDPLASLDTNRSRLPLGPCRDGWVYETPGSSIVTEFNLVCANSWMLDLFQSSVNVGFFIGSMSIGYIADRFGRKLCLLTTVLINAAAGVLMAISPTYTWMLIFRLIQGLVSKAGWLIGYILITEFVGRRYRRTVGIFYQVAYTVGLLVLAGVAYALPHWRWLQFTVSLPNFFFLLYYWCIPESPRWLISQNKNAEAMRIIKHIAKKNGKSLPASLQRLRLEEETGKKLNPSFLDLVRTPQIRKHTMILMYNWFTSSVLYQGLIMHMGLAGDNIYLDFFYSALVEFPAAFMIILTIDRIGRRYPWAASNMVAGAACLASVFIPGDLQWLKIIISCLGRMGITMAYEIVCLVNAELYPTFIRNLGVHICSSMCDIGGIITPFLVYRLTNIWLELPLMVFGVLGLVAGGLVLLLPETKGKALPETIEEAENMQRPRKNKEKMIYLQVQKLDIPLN

OATP1B3 = molecular target: T3, OATP1B3 (Homo sapiens, UniProt Q9NPD5); experiment: SLC inhibition assay in HEK293 cells; assay type: in vitro ADME; conditions: 0.05–5 µM
T3 sequence (Q9NPD5 1-702): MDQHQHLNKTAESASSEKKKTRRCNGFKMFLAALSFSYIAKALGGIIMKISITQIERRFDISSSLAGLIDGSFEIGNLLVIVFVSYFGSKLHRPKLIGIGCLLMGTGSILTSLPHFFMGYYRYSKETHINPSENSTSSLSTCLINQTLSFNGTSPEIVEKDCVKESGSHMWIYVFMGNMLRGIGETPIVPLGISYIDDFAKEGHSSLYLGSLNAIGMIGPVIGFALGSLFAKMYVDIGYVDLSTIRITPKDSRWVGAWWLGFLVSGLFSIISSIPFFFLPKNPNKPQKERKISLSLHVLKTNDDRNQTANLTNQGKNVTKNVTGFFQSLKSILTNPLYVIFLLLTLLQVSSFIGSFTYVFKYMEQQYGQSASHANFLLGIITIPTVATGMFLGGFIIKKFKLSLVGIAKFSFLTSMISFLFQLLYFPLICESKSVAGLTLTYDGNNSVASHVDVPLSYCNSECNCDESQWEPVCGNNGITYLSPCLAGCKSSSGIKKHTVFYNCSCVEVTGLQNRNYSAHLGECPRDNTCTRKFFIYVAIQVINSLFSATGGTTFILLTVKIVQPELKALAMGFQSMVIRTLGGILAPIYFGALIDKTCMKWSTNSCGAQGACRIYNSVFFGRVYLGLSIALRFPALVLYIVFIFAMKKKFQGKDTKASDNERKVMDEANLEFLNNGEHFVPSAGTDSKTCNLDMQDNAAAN

OCT2 [3] = molecular target: T2, OCT2; experiment: SLC inhibition assay in HEK293 cells; assay type: in vitro ADME
[4] = In vitro metabolism in liver microsomes; assay type: in vitro ADME; conditions: 10 μM, 60-min incubation with NADPH and UDPGA; 11 metabolites (M1–M11)
CYP3A4 = conditions: coadministration of zanubrutinib; cited from earlier work
CYP2C9 [5] = molecular target: CYP2C9 (Homo sapiens, UniProt P11712); experiment: CYP reversible inhibition in HLMs; conditions: diclofenac
OAT1 = molecular target: T4, OAT1 (Homo sapiens, UniProt Q4U2R8); experiment: SLC inhibition assay in HEK293 cells
T4 sequence (Q4U2R8 1-563): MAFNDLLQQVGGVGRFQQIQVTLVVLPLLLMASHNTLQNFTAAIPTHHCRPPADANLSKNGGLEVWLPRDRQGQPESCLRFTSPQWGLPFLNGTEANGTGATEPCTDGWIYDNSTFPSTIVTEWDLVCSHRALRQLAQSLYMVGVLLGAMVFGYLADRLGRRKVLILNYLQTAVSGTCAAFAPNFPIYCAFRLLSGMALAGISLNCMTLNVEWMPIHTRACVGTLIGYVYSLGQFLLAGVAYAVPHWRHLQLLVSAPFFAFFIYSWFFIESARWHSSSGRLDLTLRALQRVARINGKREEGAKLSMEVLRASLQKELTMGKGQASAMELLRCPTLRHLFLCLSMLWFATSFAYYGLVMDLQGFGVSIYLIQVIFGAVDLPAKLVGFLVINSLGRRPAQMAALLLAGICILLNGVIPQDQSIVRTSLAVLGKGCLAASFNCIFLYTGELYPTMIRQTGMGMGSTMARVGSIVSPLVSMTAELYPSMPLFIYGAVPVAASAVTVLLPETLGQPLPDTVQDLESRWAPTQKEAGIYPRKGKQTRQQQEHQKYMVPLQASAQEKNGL

[6] = human, HEK293 cells overexpressing OCT2 (and MOCK cells), probe metformin

Chain of CYP2C9 (P11712 whole entry): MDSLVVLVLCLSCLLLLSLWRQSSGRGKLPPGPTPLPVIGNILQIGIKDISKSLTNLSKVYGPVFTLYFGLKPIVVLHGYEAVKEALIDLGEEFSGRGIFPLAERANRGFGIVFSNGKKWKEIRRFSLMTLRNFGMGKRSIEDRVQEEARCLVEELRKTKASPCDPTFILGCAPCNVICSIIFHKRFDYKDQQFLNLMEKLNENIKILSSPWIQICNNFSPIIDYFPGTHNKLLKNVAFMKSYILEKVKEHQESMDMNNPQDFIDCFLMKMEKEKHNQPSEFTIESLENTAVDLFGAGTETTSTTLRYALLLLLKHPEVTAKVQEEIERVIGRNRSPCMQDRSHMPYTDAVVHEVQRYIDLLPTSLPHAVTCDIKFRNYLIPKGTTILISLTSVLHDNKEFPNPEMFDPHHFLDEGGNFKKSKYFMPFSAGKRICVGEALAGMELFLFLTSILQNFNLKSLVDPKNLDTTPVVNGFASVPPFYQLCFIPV

C=CC(=O)N1CCC([C@@H]2CCNc3c(C(N)=O)c(-c4ccc(Oc5ccccc5)cc4)nn32)CC1 [zanubrutinib]
Substrate status (OAT3): unlikely to be a substrate
Substrate status (OCT2 [2]): unlikely to be a substrate
Inhibition of uptake activity (OATP1B3): not inhibited
IC50 (OCT2 [3]): ~4.5 µM
activity at 0.05 µM (OCT2 [3]; [6]): 107 ± 10%
activity at 0.2 µM (OCT2 [3]; [6]): 339 ± 5.7%
activity at 1 µM (OCT2 [3]; [6]): 178 ± 36%
activity at 5 µM (OCT2 [3]; [6]): 48.4 ± 5.2%
Inhibitor status (OCT2 [3]; up to 5.0 μM): marginal inhibitor
Metabolism in liver microsomes [4]: extensively metabolized
Reduction of AUC of CYP3A probe midazolam (CYP3A4): 47.5%
R1 (CYP2C9 [5]; DDI basic model, hepatic): 1.04
Ah (CYP2C9 [5]; static model term, liver inhibition): 0.96
Inhibition of uptake activity (OAT1; 0.05–5 µM): not inhibited
activity at 0.05 µM (OAT1; human): 103 ± 5.6%
activity at 0.2 µM (OAT1; human): 106 ± 7.8%
activity at 1 µM (OAT1; human): 109 ± 3.9%
activity at 5 µM (OAT1; human): 109 ± 3.3%
